From PubChem BioAssay AID1963970 (Molecular Pharmacology Branch, DTP, NCI, 2024)

System: 931267-113-T-J1-PDC multicell spheroid viability
Assay: Anticancer human tumor 931267-113-T-J1-PDC patient-derived colon adenocarcinoma cell line growth inhibition [PI3K]
Details: for IC50: curve of first compound; for viability, T/C: stronger effect = lower value; active means viability on the fitted dose curve at most 10% of control; inactive means the rest
Description: Combinatorial screen of targeted agents with the PI3K inhibitors inavolisib, alpelisib, duvelisib, and copanlisib in multi-cell type tumor spheroids
A high-throughput screen of multi-cell type tumor spheroids was designed to identify active combinations of targeted small molecules and PI3K pathway inhibitors. Complex spheroids include a stromal component modeled by human endothelial cells (HUVEC) and fibroblasts modeled by human mesenchymal stem cells (MSCs). The concentration ranges selected for each drug and investigational agent were based upon clinically achievable concentrations if the clinical Cmax of the agent was known.
Compounds. The drugs and investigational agents: inavolisib (NSC800729), alpelisib (NSC765974), duvelisib (NSC772469), copanlisib (NSC816437), ipatasertib (NSC767898), afuresertib (NSC778305), talazoparib (NSC767125), sapanisertib (NSC764658), selumetinib (NSC741078), tovorafenib (DAY101, NSC766906), vemurafenib (NSC761431), ravoxertinib (NSC781343), sotorasib (NSC818433), MRTX1133 (NSC 836407), abemaciclib (NSC 768073), palbociclib (NSC758247), venetoclax (NSC 766270), SY5609 (NSC837396), enzalutamide (NSC755605), and darolutamide (NSC825331), were obtained from the National Cancer Institute (NCI) Developmental Therapeutics Program Chemical Repository. The FDA-approved anticancer drug set is available from the NCI Developmental Therapeutics Program. […] The stock solutions were prepared in dimethyl sulfoxide (DMSO, Sigma-Aldrich, St. Louis, MO, cat. D2650) at 800-fold the tested concentration and stored at -70 degrees C prior to their use. All drugs and investigational agents were tested over a range starting from a high concentration at or near the clinical Cmax and decreasing in half-log increments. If the clinical Cmax for an agent had not been determined, the highest concentration tested was 10 microM.
Cell Culture. All cells were maintained in an incubator at 37 degrees C and 5% CO2 with 95% humidity. The PDC lines were cultured according to standard operating procedures established by the NCI PDMR (https://pdmr.cancer.gov/sops/default.htm). All PDCs were thawed and cultured in Matrigel-coated flasks prepared with a working solution of 1X Ham's F-12 nutrient mix, without supplementation (Invitrogen, Waltham, MA, cat. 11765054), 100 U/mL penicillin-streptomycin (Invitrogen, cat. 15140122), and 2.5% Matrigel (Corning Inc., Corning, NY, cat. 354248) for the first three passages. The 354836-022-R-J1-PDC, 475296-252-R-J1-PDC, and 997726-040-R-J2-PDC lines were cultured in 6A media, which includes advanced DMEM/F-12 (Thermo Fisher Scientific, cat. 12634028), 10 mM HEPES (Thermo Fisher Scientific, cat. 15630080), 1X GlutaMAX supplement (Thermo Fisher Scientific, cat. 35050061), 0.1 mg/mL primocin (InvivoGen, San Diego, CA, cat. ant-pm-2), 10% defined fetal bovine serum, heat inactivated (HyClone Laboratories Inc., Logan, UT, cat. SH30070.03HI), 50% L-WRN conditioned media (ATCC, cat. CRL-3276), 1.25 mM N-Acetyl-L-cysteine (Sigma-Aldrich, cat. A9165), 10 mM nicotinamide (Sigma-Aldrich, cat. N0636), 1X B-27 supplement (Thermo Fisher Scientific, cat. 17504044), 1X N-2 supplement (Thermo Fisher Scientific, cat. 17502048), and 10 microM Y-27632 dihydrochloride (Tocris Bioscience, Bristol, United Kingdom, cat. 1254). The 624824-186-R-J2-PDC line was cultured in 6C/Colon 1B media, which includes all 6A media components plus 50 ng/mL human EGF recombinant protein (Thermo Fisher Scientific, cat. PHG0311). […]

[1] = second compound 0.00316 µM, first compound 0.0316 µM
[2] = second compound 0.00316 µM, first compound 0.1 µM
[3] = second compound 0.00316 µM, first compound 0.316 µM
[4] = second compound 0.00316 µM, first compound 1 µM
[5] = second compound 0.00316 µM, first compound 3.16 µM
[6] = second compound 0.00316 µM, first compound 10 µM
[7] = second compound 0.01 µM, first compound 0.0316 µM
[8] = second compound 0.01 µM, first compound 0.1 µM
[9] = second compound 0.01 µM, first compound 0.316 µM
[10] = second compound 0.01 µM, first compound 1 µM
[11] = second compound 0.01 µM, first compound 3.16 µM
[12] = second compound 0.01 µM, first compound 10 µM
[13] = second compound 0.0316 µM, first compound 0.0316 µM
[14] = second compound 0.0316 µM, first compound 0.1 µM
[15] = second compound 0.0316 µM, first compound 0.316 µM
[16] = second compound 0.0316 µM, first compound 1 µM
[17] = second compound 0.0316 µM, first compound 3.16 µM
[18] = second compound 0.0316 µM, first compound 10 µM
[19] = second compound 0.1 µM, first compound 0.0316 µM
[20] = second compound 0.1 µM, first compound 0.1 µM
[21] = second compound 0.1 µM, first compound 0.316 µM
[22] = second compound 0.1 µM, first compound 1 µM
[23] = second compound 0.1 µM, first compound 3.16 µM
[24] = second compound 0.1 µM, first compound 10 µM
[25] = second compound 0.316 µM, first compound 0.0316 µM
[26] = second compound 0.316 µM, first compound 0.1 µM
[27] = second compound 0.316 µM, first compound 0.316 µM
[28] = second compound 0.316 µM, first compound 1 µM
[29] = second compound 0.316 µM, first compound 3.16 µM
[30] = second compound 0.316 µM, first compound 10 µM
[31] = second compound 1 µM, first compound 0.0316 µM
[32] = second compound 1 µM, first compound 0.1 µM
[33] = second compound 1 µM, first compound 0.316 µM
[34] = second compound 1 µM, first compound 1 µM
[35] = second compound 1 µM, first compound 3.16 µM
[36] = second compound 1 µM, first compound 10 µM
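Further: viability read 7 days after compound addition.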

CC(C)NCC(C(=O)N1CCN(c2ncnc3c2C(C)CC3O)CC1)c1ccc(Cl)cc1 (stereo unspecified) + CC(Nc1ccc2c(c1)OCCn1cc(N3C(=O)OCC3C(F)F)nc1-2)C(N)=O
> 10 µM: IC50 (second compound 0.00316 µM) | IC50 (second compound 0.01 µM) | IC50 (second compound 0.0316 µM) | IC50 (second compound 0.1 µM) | IC50 (second compound 0.316 µM) | IC50 (second compound 1 µM)
inactive: viability, T/C [1] 91% | viability, T/C [2] 90.8% | viability, T/C [3] 92.9% | viability, T/C [4] 95.5% | viability, T/C [5] 86.8% | viability, T/C [6] 67.3% | viability, T/C [7] 102% | viability, T/C [8] 94.3% | viability, T/C [9] 97.2% | viability, T/C [10] 95.2% | viability, T/C [11] 83.5% | viability, T/C [12] 69.8% | viability, T/C [13] 103% | viability, T/C [14] 105% | viability, T/C [15] 99.2% | viability, T/C [16] 94.8% | viability, T/C [17] 96.4% | viability, T/C [18] 69.9% | viability, T/C [19] 101% | viability, T/C [20] 95.7% | viability, T/C [21] 97.9% | viability, T/C [22] 96.2% | viability, T/C [23] 84.2% | viability, T/C [24] 64.7% | viability, T/C [25] 85.3% | viability, T/C [26] 84.5% | viability, T/C [27] 83.7% | viability, T/C [28] 85.4% | viability, T/C [29] 80.5% | viability, T/C [30] 66.7% | viability, T/C [31] 73% | viability, T/C [32] 75.4% | viability, T/C [33] 72.1% | viability, T/C [34] 76% | viability, T/C [35] 82.9% | viability, T/C [36] 59.9%

CCN1CCN(Cc2ccc(Nc3ncc(F)c(-c4cc(F)c5nc(C)n(C(C)C)c5c4)n3)nc2)CC1 + CC(Nc1ccc2c(c1)OCCn1cc(N3C(=O)OCC3C(F)F)nc1-2)C(N)=O
inactive: viability, T/C (second compound 0.00316 µM, first compound 0.00316 µM) 95.5% | viability, T/C (second compound 0.00316 µM, first compound 0.01 µM) 99.3% | viability, T/C [1] 102% | viability, T/C [2] 108% | viability, T/C [3] 99.3% | viability, T/C [4] 80.8% | viability, T/C (second compound 0.01 µM, first compound 0.00316 µM) 108% | viability, T/C (second compound 0.01 µM, first compound 0.01 µM) 96.7% | viability, T/C [7] 99.2% | viability, T/C [8] 91.5% | viability, T/C [9] 93.4% | viability, T/C [10] 80.7% | viability, T/C (second compound 0.0316 µM, first compound 0.00316 µM) 105% | viability, T/C (second compound 0.0316 µM, first compound 0.01 µM) 101% | viability, T/C [13] 95.2% | viability, T/C [14] 85.2% | viability, T/C [15] 86% | viability, T/C [16] 70.2% | viability, T/C (second compound 0.1 µM, first compound 0.00316 µM) 92.8% | viability, T/C (second compound 0.1 µM, first compound 0.01 µM) 97.8% | viability, T/C [19] 94.1% | viability, T/C [20] 79.7% | viability, T/C [21] 69.7% | viability, T/C [22] 60.9% | viability, T/C (second compound 0.316 µM, first compound 0.00316 µM) 80.4% | viability, T/C (second compound 0.316 µM, first compound 0.01 µM) 84.5% | viability, T/C [25] 79% | viability, T/C [26] 70.4% | viability, T/C [27] 62.5% | viability, T/C [28] 51.6% | viability, T/C (second compound 1 µM, first compound 0.00316 µM) 86.7% | viability, T/C (second compound 1 µM, first compound 0.01 µM) 79.4% | viability, T/C [31] 65.7% | viability, T/C [32] 59.2% | viability, T/C [33] 52% | viability, T/C [34] 46.3%
0.452 µM: IC50 (second compound 1 µM)
> 1 µM: IC50 (second compound 0.00316 µM) | IC50 (second compound 0.01 µM) | IC50 (second compound 0.0316 µM) | IC50 (second compound 0.1 µM) | IC50 (second compound 0.316 µM)

Cn1ncc(Cl)c1-c1cc(C(=O)NC(CN)Cc2cccc(F)c2)sc1Cl (stereo unspecified) + CC(Nc1ccc2c(c1)OCCn1cc(N3C(=O)OCC3C(F)F)nc1-2)C(N)=O
3.51 µM: IC50 (second compound 1 µM)
inactive: viability, T/C [1] 94.7% | viability, T/C [2] 102% | viability, T/C [3] 85.5% | viability, T/C [4] 88.3% | viability, T/C [5] 71.1% | viability, T/C [6] 22.8% | viability, T/C [7] 98.3% | viability, T/C [8] 90.7% | viability, T/C [9] 91% | viability, T/C [10] 79.2% | viability, T/C [11] 70.9% | viability, T/C [12] 27.6% | viability, T/C [13] 103% | viability, T/C [14] 89.2% | viability, T/C [15] 94.8% | viability, T/C [16] 86.3% | viability, T/C [17] 66.1% | viability, T/C [18] 25.9% | viability, T/C [19] 110% | viability, T/C [20] 92.6% | viability, T/C [21] 92.5% | viability, T/C [22] 75.1% | viability, T/C [23] 61.1% | viability, T/C [24] 20.3% | viability, T/C [25] 80.8% | viability, T/C [26] 94.4% | viability, T/C [27] 76.4% | viability, T/C [28] 73.2% | viability, T/C [29] 60.1% | viability, T/C [30] 20.9% | viability, T/C [31] 82% | viability, T/C [32] 70.7% | viability, T/C [33] 80.7% | viability, T/C [34] 63.8% | viability, T/C [35] 54.7% | viability, T/C [36] 21.4%
4.09 µM: IC50 (second compound 0.316 µM)
3.9 µM: IC50 (second compound 0.1 µM)
5.05 µM: IC50 (second compound 0.0316 µM)
5.16 µM: IC50 (second compound 0.00316 µM)
5.26 µM: IC50 (second compound 0.01 µM)
